# According to patent US9683014B2, “Dipeptide mimetics of NGF and BDNF neurotrophins” (UCHREZHDENIE ROSSIISKOI AKADEMII MEDITSYNSKIKH NAUK …, priority 2009, dated 2017):
# “And” between values parts separate entries of the source, which are not always exact repeats. Equal entries are not always repeated. Where two headings read alike, the source gives them in different places. Marks after values point to notes of the source that are not given here.
# Legend:
# Wistar rats = conditions: 1 mg/kg i.p. x7
# Experimental: The experiments were carried out on male Wistar rats weighing 280-400 g. Animals were anesthetized and scalped followed by being placed in the stereotaxis device. A skewed incision was made in the skull 1 mm wide: the start point for incision was at the level of bregma (AP=0.0) and 2 mm lateral of it (L=±2); the end point for incision was 2 mm caudal of bregma and 1 mm lateral of it (AP=2.0, L=±1). Following the sawing of the skull bone, the dura mater was incised carefully in the sawcut area. A sterile curved needle was inserted into the incision to a depth of 6.2 mm from the bone surface (DV=−6.2). By the simultaneous use of two screws in the stereotaxis device, the needle was moved slowly almost to the end point of the skewed incision. Then the needle was lifted slowly from the incision. The procedure was repeated twice on each hemisphere. Sham operation was similar to the transection procedure except that the needle was inserted to a depth of 3 mm from the bone surface (DV=−3.0). The first injection of the test compound (1 mg/kg i.p.) in the treatment group or of distilled water in the control group was made 2 hours after the transection. Further injections were made every 48 hours. In the course of the experiment each animal received 7 injections of the test compound.
# To detect behavioral abnormalities induced by the transection of the septo-hippocampal pathway, the open-field test was used. The choice of this test was based on the following studies: 1) Lamprea M. R., Cardenas F. P., Silveira R., Walsh T. J., Morato S. Effects of septal cholinergic lesion on rat exploratory behavior in an open-field. Braz. J. Med. Biol. Res. 2003, 36(2), 233-238; 2) Cassel J. S., Kelche C., Peterson G. M., Ballough G. P., Goepp I., Will B. Graft-induced behavioral recovery from subcallosal septohippocampal damage in rats depends on maturity stage of donor tissue. Neuroscience, 1991, 45(3), 571-586. Animals were tested in the open-field device 48 hours after the last injection of the test compound (at 14 days after surgery). Differences between experimental groups were assessed according to the Wilcoxon paired test. The data are expressed as the median values for the respective samples.
# HT-22 cells = test: Oxidative stress (H2O2) model in cultured HT-22 cells (MTT test); type: cell-based, mouse
# Experimental: To induce an oxidative stress, the cells were placed in a growth medium containing 5% FBS, then a freshly prepared H2O2 solution was added to a final concentration of 1.5 mM and incubated for 30 min at 37° C. and 5% CO2. Thereafter, the medium was replaced with a new one and the cells were cultured for 4 h under the same conditions.
# The determination of cell viability was carried out by MTT test. […] At the end of an experiment the growth medium was replaced with an MTT solution (0.5 mg/ml) and incubated for 30 min at 37° C. and 5% CO2. The MTT solution was then removed from the wells and DMSO was added to dissolve the formazan precipitate. Then the optical density was measured using a Multiscan (Thermo) spectrophotometer at a wavelength of 600 nm.
# [1] = system: rats with ischemic cerebral infarction; conditions: 1 mg/kg i.p. x3
# [2] = system: rats with hemorrhagic stroke; conditions: 1 mg/kg
# Experimental: The experiments were carried out on male white outbred rats weighing 220-250 g. […] The local cerebral hemorrhage (post-traumatic intracerebral hemorrhage) as a hemorrhagic stroke (HS) model was produced by the method of Makarenko (Makarenko A. N. et al., Zh. V. N. D. 2002, 52(6), 765-768).
# To produce the stroke, rats were anesthetized with chloral hydrate (400 mg/kg i.m.) followed by craniotomy. The cerebral tissue in the region of internal capsule was destroyed followed (in 2-3 min) by the injection of blood (0.02-0.03 ml) taken from under the animal's tongue.
# The rats were monitored for 14 days after surgery. Animal's physical condition and behavioral features were recorded at 1, 3, 7 and 14 days.
# The animals were distributed into 3 groups. Group 1 comprised sham-operated (SO) rats with craniotomy alone, group 2 comprised animals with HS, and group 3 comprised rats with HS treated with GK-2 (1 mg/kg at 3 h after surgery and every 48 hours thereafter for a total of 6 administrations). Group 1 and group 2 animals were treated with physiological saline in an equivalent volume.
# Changes in animals' physical condition and behavior were evaluated by conventional methods. The neurological status was assessed by scoring neurological deficits according to MacGrow's stroke scoring system as modified by I. V. Gannushkina; by the muscle tone and coordination of movements monitoring methods; cognitive function was assessed by the passive avoidance conditioned reflex (PAR); and orientation and exploratory behavior by using the open field test. Also the drug's effect on the survival of rats was monitored.
structure (smiles),measurement,setting,value
"NCCCC[C@H](NC(=O)[C@H](CCC(=O)O)NC(=O)CCC(=O)O)C(=O)NCCCCCCNC(=O)[C@H](CCCCN)NC(=O)[C@H](CCC(=O)O)NC(=O)CCC(=O)O [GK-2, bis-(N-monosuccinyl-glutamyl-lysine) hexamethylenediamide]",horizontal motor activity in the open-field test (median),"Wistar rats; 1st minute, 14 days after surgery, transection 11.5, sham 21",12.5
same,horizontal motor activity in the open-field test (median),"Wistar rats; 2nd minute, transection 12, sham 14",11.5
same,horizontal motor activity in the open-field test (median),"Wistar rats; 3rd minute, transection 19, sham 9.5",15.5
same,horizontal motor activity in the open-field test (median),"Wistar rats; 4th minute, transection 11.5, sham 9",6.5*
same,Optical density (MTT),HT-22 cells,0.324 ± 0.070^ and 0.345 ± 0.065^
same,effect when added immediately after the oxidative stress exposure,HT-22 cells; 10^−8 M to 10^−5 M,therapeutic effect
same,Optical density (MTT),"HT-22 cells; Table 1.4, 10^−5M, 24 h before H2O2, control 0.427 ± 0.071, H2O2 0.350 ± 0.052",0.422 ± 0.063^
same,Optical density (MTT),"HT-22 cells; Table 1.4, 10^−8M, 24 h before H2O2, control 0.427 ± 0.071, H2O2 0.350 ± 0.052",0.501 ± 0.109^
same,Optical density (MTT),"HT-22 cells; Table 1.4, 10^−9M, 24 h before H2O2, control 0.427 ± 0.071, H2O2 0.350 ± 0.052",0.516 ± 0.068^
same,neuronal survival under oxidative stress,"HT-22 cells; added 24 hours prior to the stress exposure, 10^−8 M to 10^−5 M",improved the neuronal survival
same,limb-placing test score,"[1]; day 4 post-ischemia, ischemic rats 3.00±0.38, intact 14",5.90±0.62
same,limb-placing test score,"[1]; day 7 post-ischemia, ischemic rats 4.46±0.40, intact 14",7.67±0.75
same,"Number of rats lost within 14 days after HS, total loss, %","[2]; sham 0, stroke 40",0%
same,"Number of rats lost within 14 days after HS, total loss, abs.","[2]; sham 0/10, stroke 4/10",0/10^#
same,Latency to entering the dark compartment (burrowing reflex),"[2]; sham 13.3 ± 2.10, stroke 40.2 ± 13.2",27.9 ± 10.4 s
same,"Number of rats lost, %","[2]; Day 1, sham 0, stroke 20",0%
same,"Number of rats lost, abs.","[2]; Day 1, sham 0/10, stroke 2/10",0/10
same,Number of crossings into open arms,"[2]; Day 1, sham 0.9, stroke 0",1.6 ± 0.4
same,Number of crossings into the middle,"[2]; Day 1, sham 1.9, stroke 0.25",1.5 ± 0.4
same,Number of crossings into closed arms,"[2]; Day 1, sham 2.4, stroke 1.1",1.9 ± 0.4
same,Latency to entering an arm,"[2]; Day 1, sham 6.1, stroke 62.8",4.9 ± 1.05 s
same,Length of time spent in open arms,"[2]; Day 1, sham 11.6, stroke 0",51.3 ± 27.9 s
same,Length of time spent in the middle,"[2]; Day 1, sham 46.8, stroke 95.3",27.5 ± 7.4 s
same,PAR retention: Number of rats entering the dark compartment,"[2]; Day 1, sham 60, stroke 100",60%
same,PAR retention: Latency to entering the dark compartment,"[2]; Day 1, sham 95.0, stroke 24.5",85.5 ± 25.9 s
same,Length of time spent in closed arms,"[2]; Day 1, sham 241.6, stroke 204.8",221.2 ± 28.5 s
same,"Number of rats lost, %","[2]; Day 3, sham 0, stroke 0",0%
same,"Number of rats lost, abs.","[2]; Day 3, sham 0/10, stroke 0/8",0/10
same,Number of crossings into open arms,"[2]; Day 3, sham 0.6, stroke 0.12",0.8 ± 0.2
same,Number of crossings into the middle,"[2]; Day 3, sham 0.6, stroke 0.12",0.5 ± 0.2
same,Number of crossings into closed arms,"[2]; Day 3, sham 1.4, stroke 0.5",1.2 ± 0.1
same,Latency to entering an arm,"[2]; Day 3, sham 5.1, stroke 164.4",7.1 ± 1.9 s
same,Length of time spent in open arms,"[2]; Day 3, sham 6.2, stroke 1.3",10.3 ± 4.4 s
same,Length of time spent in the middle,"[2]; Day 3, sham 18.6, stroke 165.0",15.1 ± 4.9 s
same,PAR retention: Number of rats entering the dark compartment,"[2]; Day 3, sham 70, stroke 100",60%
same,PAR retention: Latency to entering the dark compartment,"[2]; Day 3, sham 74.0, stroke 18.3",88.0 ± 25.8 s
same,Length of time spent in closed arms,"[2]; Day 3, sham 275.2, stroke 133.7",274.6 ± 5.7 s
same,"Number of rats lost, %","[2]; Day 7, sham 0, stroke 12.5",0%
same,"Number of rats lost, abs.","[2]; Day 7, sham 0/10, stroke 1/8",0/10
same,Number of crossings into the middle,"[2]; Day 7, sham 0.7, stroke 0",0.8 ± 0.4
same,Number of crossings into open arms,"[2]; Day 7, sham 1.4, stroke 0.4",1.1 ± 0.2
same,Number of crossings into closed arms,"[2]; Day 7, sham 1.4, stroke 1.0",1.5 ± 0.2
same,Latency to entering an arm,"[2]; Day 7, sham 3.0, stroke 67.4",2.5 ± 0.3 s
same,Length of time spent in the middle,"[2]; Day 7, sham 8.3, stroke 67.4",8.0 ± 2.2 s
same,Length of time spent in open arms,"[2]; Day 7, sham 13.3, stroke 8.6",9.2 ± 1.9 s
same,PAR retention: Number of rats entering the dark compartment,"[2]; Day 7, sham 50, stroke 100",80%
same,PAR retention: Latency to entering the dark compartment,"[2]; Day 7, sham 97.2, stroke 17.6",45.5 ± 22.5 s
same,Length of time spent in closed arms,"[2]; Day 7, sham 278.4, stroke 238.3",283.0 ± 2.9 s
same,"Number of rats lost, %","[2]; Day 14, sham 0, stroke 14.3",0%
same,"Number of rats lost, abs.","[2]; Day 14, sham 0/10, stroke 1/7",0/10
same,Number of crossings into the middle,"[2]; Day 14, sham 0.7, stroke 0.2",1.4 ± 0.3
same,Number of crossings into open arms,"[2]; Day 14, sham 1.1, stroke 0.2",1.1 ± 0.3
same,Number of crossings into closed arms,"[2]; Day 14, sham 1.3, stroke 0.8",1.6 ± 0.4
same,Latency to entering an arm,"[2]; Day 14, sham 3.1, stroke 54.3",2.6 ± 0.4 s
same,Length of time spent in the middle,"[2]; Day 14, sham 18.1, stroke 57.7",16.4 ± 8.5 s
same,Length of time spent in open arms,"[2]; Day 14, sham 29.7, stroke 0.8",8.8 ± 2.3 s
same,PAR retention: Number of rats entering the dark compartment,"[2]; Day 14, sham 60, stroke 100",90%
same,PAR retention: Latency to entering the dark compartment,"[2]; Day 14, sham 93.5, stroke 8.0",45.0 ± 16.4 s
same,Length of time spent in closed arms,"[2]; Day 14, sham 252.2, stroke 241.5",274.8 ± 9.9 s
